Test results reported in ChEMBL document CHEMBL1201862, “PubChem BioAssay data set” (2004).
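In this assay, cells in 96-well plates receive the compound at five concentrations for 48 hours. Endpoints are linearly interpolated between the surrounding concentrations. GI50 is the concentration that inhibits growth by half.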 Active and inactive are the calls of the source. Rule as the data show it: active = GI50 up to about 1.1 µM and inactive = higher.

Tests used:
Assay in all cases: growth of human tumour cells (NCI), 48 h
OVCAR-8 = system: OVCAR-8
OVCAR-3 = system: OVCAR-3
HCT-15 = system: HCT-15
HOP-62 = system: HOP-62
MOLT-4 = system: MOLT-4
SF-295 = system: SF-295
MDA-MB-435 = system: MDA-MB-435
SK-MEL-28 = system: SK-MEL-28
SR = system: SR
DU-145 = system: DU-145
KM12 = system: KM12
CAKI-1 = system: CAKI-1
CCRF-CEM = system: CCRF-CEM
SW-620 = system: SW-620
HL-60 = system: HL-60
TK-10 = system: TK-10
HCT-116 = system: HCT-116
UACC-257 = system: UACC-257
A549 = system: A549
NCI-H460 = system: NCI-H460

| Compound | GI50 (OVCAR-8) | GI50 (OVCAR-3) | GI50 (HCT-15) [µM] | GI50 (HOP-62) | GI50 (MOLT-4) | GI50 (SF-295) | GI50 (MDA-MB-435) | GI50 (SK-MEL-28) | GI50 (SR) | GI50 (DU-145) | GI50 (KM12) | GI50 (CAKI-1) | GI50 (CCRF-CEM) | GI50 (SW-620) | GI50 (HL-60) | GI50 (TK-10) | GI50 (HCT-116) | GI50 (UACC-257) | GI50 (A549) | GI50 (NCI-H460) |
| --- | --- | --- | --- | --- | --- | --- | --- | --- | --- | --- | --- | --- | --- | --- | --- | --- | --- | --- | --- | --- |
| Cc1cnc2cc(Cl)ccc2c1SCC(=O)O | > 100 µM (inactive) | > 100 µM (inactive) | > 100 | > 100 µM (inactive) | > 100 µM (inactive) | > 100 µM (inactive) | > 100 µM (inactive) | > 100 µM (inactive) | > 100 µM (inactive) | > 100 µM (inactive) | > 100 µM (inactive) | > 100 µM (inactive) | > 100 µM (inactive) | > 100 µM (inactive) | > 100 µM (inactive) | > 100 µM (inactive) | > 100 µM (inactive) | > 100 µM (inactive) | > 100 µM (inactive) | > 100 µM (inactive) |
| CCCCCCSc1nc(COC(=O)NC)c(COC(=O)NC)n1C | > 100 µM (inactive) | > 100 µM (inactive) | > 100 | > 100 µM (inactive) | > 100 µM (inactive) | > 100 µM (inactive) | > 100 µM (inactive) | > 100 µM (inactive) | > 100 µM (inactive) | > 100 µM (inactive) | > 100 µM (inactive) | > 100 µM (inactive) | > 100 µM (inactive) | > 100 µM (inactive) | > 100 µM (inactive) | > 100 µM (inactive) | > 100 µM (inactive) | > 100 µM (inactive) | > 100 µM (inactive) | > 100 µM (inactive) |
| CSc1ccc(/C=C2\N=C(c3ccccc3)N(c3nc4cc(Cl)c(F)cc4s3)C2=O)cc1 | 20 µM (inactive) | 19.8 µM (inactive) | 76.9 | 25.2 µM (inactive) | 29.6 µM (inactive) | 51.2 µM (inactive) | 33 µM (inactive) | > 100 µM (inactive) | 37.4 µM (inactive) | 50 µM (inactive) | 31.4 µM (inactive) | > 100 µM (inactive) | 25 µM (inactive) | 71.8 µM (inactive) | 38.3 µM (inactive) | > 100 µM (inactive) | 36.2 µM (inactive) | > 100 µM (inactive) | 33.7 µM (inactive) | 57.3 µM (inactive) |
| Cc1ccc2c(c1)-c1c(C#N)c(N)nc(-c3ccc(Cl)cc3)c1CCS2(=O)=O | 14.8 µM (inactive) | 3.94 µM (inactive) | 4.6 | 6.12 µM (inactive) | 4.99 µM (inactive) | 4.21 µM (inactive) | 2.52 µM (inactive) | 20.6 µM (inactive) | 1.87 µM (inactive) | 17.2 µM (inactive) | 3.48 µM (inactive) | 5.97 µM (inactive) | 1.12 µM (active) | 5.81 µM (inactive) | 0.207 µM (active) | 43.6 µM (inactive) | 4.45 µM (inactive) | 5.24 µM (inactive) | 5.31 µM (inactive) | 3.85 µM (inactive) |
| COc1cc(/C=C2\C(=O)N(Cc3ccccc3)C(c3ccccc3)S2(=O)=O)cc(OC)c1OC (stereo not given) | 37.2 µM (inactive) | 47.3 µM (inactive) | 27.5 | > 100 µM (inactive) | 4.11 µM (inactive) | 27 µM (inactive) | 41.9 µM (inactive) | 93.8 µM (inactive) | 14.3 µM (inactive) | 91.6 µM (inactive) | 34.7 µM (inactive) | > 100 µM (inactive) | 36.5 µM (inactive) | 79.1 µM (inactive) | 5.13 µM (inactive) | 36.1 µM (inactive) | 17.6 µM (inactive) | 26.2 µM (inactive) | 29.9 µM (inactive) | 35.4 µM (inactive) |
| CC1(C)CC2C(/C1=N/O)C1(C)CCCC2(C)C1O (stereo not given) | > 100 µM (inactive) | > 100 µM (inactive) | > 100 | > 100 µM (inactive) | > 100 µM (inactive) | > 100 µM (inactive) | > 100 µM (inactive) | > 100 µM (inactive) | > 100 µM (inactive) | > 100 µM (inactive) | > 100 µM (inactive) | > 100 µM (inactive) | > 100 µM (inactive) | > 100 µM (inactive) | > 100 µM (inactive) | > 100 µM (inactive) | > 100 µM (inactive) | > 100 µM (inactive) | > 100 µM (inactive) | > 100 µM (inactive) |
| CN(C)CCCNC(=O)c1cc2/c(=C\c3ccc(N(C)C)cc3)c3ccccc3n2[n+]1C | 40.8 µM (inactive) | 15.4 µM (inactive) | > 100 | 48.3 µM (inactive) | 34.8 µM (inactive) | 40.3 µM (inactive) | 24.9 µM (inactive) | 30.8 µM (inactive) | 23.3 µM (inactive) | > 100 µM (inactive) | 24.7 µM (inactive) | > 100 µM (inactive) | 35.1 µM (inactive) | 31.1 µM (inactive) | 11.9 µM (inactive) | 90.6 µM (inactive) | 26.2 µM (inactive) | 21.4 µM (inactive) | > 100 µM (inactive) | 51.2 µM (inactive) |
| N#CC1=C(S)N(C2OC(CO)C(O)C(O)C2O)C(c2ccccc2)=CC1c1cccs1 (stereo not given) | 22.3 µM (inactive) | 27.9 µM (inactive) | 32.7 | 22.1 µM (inactive) | 22.7 µM (inactive) | 17.5 µM (inactive) | 20.3 µM (inactive) | 21.1 µM (inactive) | 23 µM (inactive) | > 10 µM (inactive) | 18.8 µM (inactive) | 23.1 µM (inactive) | 22.3 µM (inactive) | 16.6 µM (inactive) | 28.9 µM (inactive) | 29 µM (inactive) | 26.3 µM (inactive) | 21.7 µM (inactive) | 20 µM (inactive) | 17.7 µM (inactive) |
| CC1SCCc2nc3ccccc3n21 (stereo not given) | > 100 µM (inactive) | > 100 µM (inactive) | > 100 | > 100 µM (inactive) | > 100 µM (inactive) | > 100 µM (inactive) | > 100 µM (inactive) | > 100 µM (inactive) | > 100 µM (inactive) | > 100 µM (inactive) | > 100 µM (inactive) | > 100 µM (inactive) | > 100 µM (inactive) | > 100 µM (inactive) | > 100 µM (inactive) | > 100 µM (inactive) | > 100 µM (inactive) | > 100 µM (inactive) | > 100 µM (inactive) | > 100 µM (inactive) |
| Clc1ccc(-c2nc3cc(C45CC6CC(CC(C6)C4)C5)ccc3[nH]2)cc1 | 28.7 µM (inactive) | 21.7 µM (inactive) | 9.46 | 37.8 µM (inactive) | 0.551 µM (active) | 57.7 µM (inactive) | 36.1 µM (inactive) | 75 µM (inactive) | 5.64 µM (inactive) | 54 µM (inactive) | 13.1 µM (inactive) | > 59.3 µM (inactive) | 8.3 µM (inactive) | 19.3 µM (inactive) | 2.07 µM (inactive) | 40.2 µM (inactive) | 22.5 µM (inactive) | 10.7 µM (inactive) | 14.8 µM (inactive) | 17.6 µM (inactive) |
| COCCNC1CCC(=O)c2[nH]c3ccccc3c21 (stereo not given) | > 100 µM (inactive) | 40.2 µM (inactive) | > 100 | > 100 µM (inactive) | > 100 µM (inactive) | > 100 µM (inactive) | > 100 µM (inactive) | > 100 µM (inactive) | > 100 µM (inactive) | > 100 µM (inactive) | > 100 µM (inactive) | > 100 µM (inactive) | > 100 µM (inactive) | > 100 µM (inactive) | > 100 µM (inactive) | > 100 µM (inactive) | > 100 µM (inactive) | > 100 µM (inactive) | > 100 µM (inactive) | > 100 µM (inactive) |
| O=c1cc(-c2ccccc2)[nH]c2cc(F)c(F)cc12 | 0.824 µM (active) | 0.34 µM (active) | 0.472 | 1.33 µM (inactive) | 0.438 µM (active) | 1.21 µM (inactive) | 0.1 µM (active) | 1.72 µM (inactive) | 0.189 µM (active) | 0.472 µM (active) | 0.326 µM (active) | > 100 µM (inactive) | 0.379 µM (active) | 0.355 µM (active) | 0.23 µM (active) | 3.83 µM (inactive) | 0.417 µM (active) | 0.498 µM (active) | 0.463 µM (active) | 0.565 µM (active) |
| Cc1cc(O)c(O)c(Oc2cc(C)cc(O)c2O)c1 | 16.2 µM (inactive) | 4.48 µM (inactive) | 9.14 | 67.6 µM (inactive) | 10 µM (inactive) | 14.8 µM (inactive) | 12.7 µM (inactive) | 32.2 µM (inactive) | 6.7 µM (inactive) | 23.3 µM (inactive) | 22 µM (inactive) | 32 µM (inactive) | 2.37 µM (inactive) | 16.9 µM (inactive) | 1.99 µM (inactive) | 17.1 µM (inactive) | 14.5 µM (inactive) | 6.07 µM (inactive) | 73.1 µM (inactive) | 11.1 µM (inactive) |
| O=C1C=CC(O)C2C1CC13SSC4(CC5C(=O)C=CC(O)C5N4C1=O)C(=O)N23 (stereo not given) | 0.0698 µM (active) | 0.0845 µM (active) | 0.14 | 0.324 µM (active) | 0.0109 µM (active) | 1.09 µM (active) | 0.164 µM (active) | 0.302 µM (active) | < 0.01 µM (active) | 0.354 µM (active) | 0.0885 µM (active) | 0.155 µM (active) | < 0.01 µM (active) | 0.0324 µM (active) | < 0.0465 µM (active) | 0.485 µM (active) | < 0.0151 µM (active) | 0.183 µM (active) | 2.52 µM (inactive) | 0.681 µM (active) |
